Laboratory results: patent US20030013685A1, “Process for increasing the egg production and strengthening the eggshells of poultry” (priority 2000, published 2003)
Where two headings read alike, the source gives them in different places.

Columns and labels:
[1] = system: hens of ISA Brown strain; test: Histomorphometric examination of tarsometatarsal bone (medullary bone volume); format: in vivo, hen; settings: for Multiplication factor of medullary bone volume: onset of laying to 55 weeks old
Method: (§1) A total number of 216 hens of ISA Brown strain between 15 and 17 weeks old was divided into 3 groups for the purpose of evaluating the effects on the production of eggs of a single subcutaneous administration of tiludronic acid, in the form of its sodium salt (disodium tiludronate).
(§2) Three doses were compared: 0, 1 and 10 mg/kg (corresponding amount of tiludronic acid/kg). The tiludronic acid was administered in the form of injectable aqueous solutions such that the volume injected per bird was 1 ml per kilo of live weight. The tiludronic acid solutions were thus concentrated to 0.1% and 1% for the doses of 1 and 10 mg/kg, respectively. The control group received a placebo corresponding to water for an injectable preparation. The injections were performed subcutaneously in the region above the superficial pectoral muscle.
One half of the total number of hens was sacrificed on laying the first egg, in order to carry out a histomorphometric examination. This examination was performed on one of the two tarsometatarsal bones.
At 55 weeks old, all the animals were sacrificed and a histomorphometric examination of one of the tarsometatarsal bones was performed under the same conditions as on the bones of the hens sacrificed on laying of the first egg.
(§3) The “age of onset of laying”, “total number of eggs laid per hen”, “number of eggs laid per hen and per week over the entire laying period”, “mechanical strength of the shell”, “thickness of the shell” and “medullary bone volume” criteria were compared by means of a single-factor variance analysis (dose factor).

[2] = system: hens of ISA Brown strain; test: Laying parameters of hens after a single subcutaneous administration of tiludronic acid (disodium tiludronate) before onset of laying; format: in vivo, hen; settings: for Age of onset of laying: hens monitored up to 55 weeks old; for Average number of eggs laid per hen and per week / Average total number of eggs laid per hen: from onset of laying up to 55 weeks old
Method: as §1, §2
The hens were housed in individual cages in the same building at controlled temperature and hygrometry. Each animal was identified by a number carried on a ring attached to a wing. They received the same standard feed for laying hens, freely throughout the duration of the study. Drinking water was also distributed freely.
The average age of onset of laying for the hens in this strain is 20 weeks, with extremes of between 18 and 23 weeks. Consequently, for the hens of this study, the average delay between the treatment and the age of onset of laying had to be from 3 to 5 weeks. The duration of the study was 40 weeks. At the end of the study, the hens were 55 weeks old.
The other half of the total number of hens was monitored in order to collect the following laying parameters: age on laying the first egg and total number of eggs laid up to 55 weeks old. For each group, the average number of eggs laid per hen and per week was calculated over the entire laying period and week by week, in order to establish the laying curves.
as §3

[3] = system: hens of ISA Brown strain; test: Thickness of the mineralized part of the shell from electron microscope images; format: in vivo, hen; settings: for Thickness of the mineralized part of the shell at 23 weeks: 23 weeks old; for Thickness of the mineralized part of the shell at 54 weeks: 54 weeks old
Method: as §1, §2
(§4) Moreover, an analysis of the mechanical strength of the shell and the thickness of the mineralized part of the shell was carried out using a sample of 12 hens at the following two dates of maturity: at 23 weeks old (i.e. at the start of laying) and at 54 weeks old. The strength of the shell was measured quantitatively by a technique of quasi-static compression of the eggshell. The thickness of the shell was measured from images obtained with an electron microscope.
as §3

[4] = system: hens of ISA Brown strain; test: Mechanical strength of the eggshell by quasi-static compression; format: in vivo, hen; settings: for Mechanical strength of the shell at 23 weeks: 23 weeks old; for Mechanical strength of the shell at 54 weeks: 54 weeks old
Method: as §1, §2, §4, §3

[5] = system: laying hens; settings: cited from earlier work
[6] = treated groups, laying curves FIG. 1 and 2

For `O=P(O)(O)C(Sc1ccc(Cl)cc1)P(=O)(O)O` [tiludronic acid, 4-chlorophenylthiomethylenebisphosphonic acid], the “Volume of medullary bone of the tarsometatarsal bone at 55 weeks old” value ([1]; 1 mg/kg) was 2.75 ± 2.72%, the “Volume of medullary bone of the tarsometatarsal bone at the onset of laying” value ([1]; 1 mg/kg) was 0.31 ± 0.53% and the “Multiplication factor of medullary bone volume” value ([1]; 1 mg/kg) was 9. For the same compound, the “Volume of medullary bone of the tarsometatarsal bone at 55 weeks old” value ([1]; 10 mg/kg) was 3.53 ± 3.04%, the “Volume of medullary bone of the tarsometatarsal bone at the onset of laying” value ([1]; 10 mg/kg) was 0.26 ± 0.33% and the “Multiplication factor of medullary bone volume” value ([1]; 10 mg/kg) was 13. The “Total number of eggs laid per hen versus control group (2-by-2 analysis)” value ([2]; 1 mg/kg) was “significantly higher”, the “Age of onset of laying” value ([2]; 1 mg/kg single subcutaneous dose) was 148.3 ± 7.8 days and the “Average number of eggs laid per hen and per week” value ([2]; 1 mg/kg) was 6.53 ± 0.27. The “Average total number of eggs laid per hen” value ([2]; 1 mg/kg) was 221.6 ± 11.2, the “Start of laying on average after the hens of the other 2 groups” value ([2]; 1 mg/kg, no significant difference (p=0.11)) was 3 days and the “Age of onset of laying” value ([2]; 10 mg/kg single subcutaneous dose) was 145.1 ± 8.8 days. For the same compound, the “Average number of eggs laid per hen and per week” value ([2]; 10 mg/kg) was 6.39 ± 0.34, the “Average total number of eggs laid per hen” value ([2]; 10 mg/kg) was 219.8 ± 12.6 and the “Laying peak compared with control group” value [2, 6] was “higher”. The “Slope of the laying curve compared with controls” value [2, 6] was “substantially smaller”, the “Change in the age of onset of laying” value ([2]; treatment with tiludronic acid, 1 and 10 mg/kg) was “did not result in any change” and the “Thickness of the mineralized part of the shell at 23 weeks” value ([3]; 1 mg/kg) was 0.256 ± 0.025 mm. The “Thickness of the mineralized part of the shell at 54 weeks” value ([3]; 1 mg/kg) was 0.267 ± 0.026 mm, the “Thickness of the mineralized part of the shell at 23 weeks” value ([3]; 10 mg/kg) was 0.272 ± 0.013 mm and the “Thickness of the mineralized part of the shell at 54 weeks” value ([3]; 10 mg/kg) was 0.273 ± 0.021 mm. The “Mechanical strength of the shell at 23 weeks” value ([4]; 1 mg/kg) was 39.3 ± 5.2 N, the “Mechanical strength of the shell at 54 weeks” value ([4]; 1 mg/kg) was 28.3 ± 4.9 N and the “Mechanical strength of the shell at 23 weeks” value ([4]; 10 mg/kg) was 41.5 ± 6.3 N. The “Mechanical strength of the shell at 54 weeks” value ([4]; 10 mg/kg) was 30.3 ± 6.1 N and the “Loss of mechanical strength of the eggshells between the two maturity dates of measurement” value ([4]; two treated groups (1 and 10 mg/kg), between 23 and 54 weeks) was “about −28%”.
For `NCCCC(O)(P(=O)(O)O)P(=O)(O)O` [alendronate, [4-amino-1-hydroxybutylidene] bisphosphonate], the Effect on laying ([5]; 1 mg/kg subcutaneously every 2 days for 2 weeks, about 18 weeks after onset of laying, within a few days) is listed as “complete stoppage of laying”, the Effect on laying ([5]; 0.01, 0.1 or 1 mg/kg during laying) is listed as “reduction, or even the stopping, of laying” and the “Effect on the quality of the shell” value ([5]; administration during laying, more pronounced the higher the dose) is listed as “adverse change in the quality of the shell”.
